Data: US12655141B2, “Inhibitors of notch signaling pathway and use thereof in treatment of cancers” (Cellestia Biotech AG, priority 2019, dated 2026)

Columns and labels:
[1] = system: NOTCH positive/driven human T cell acute lymphoblastic leukemia cell line RPMI 8402; assay: PrestoBlue anti-proliferative assay; format: cell-based; settings: for IC50: Homo sapiens, RPMI 8402, RPMI8402, 72 hours, concentration range 0.03-100 μM; for fold change compared to 6-(4-tert-butylphenoxy)pyridin-3-amine (anti-proliferative IC50): RPMI8402, 72 hours
Description: (§1) Alamarblue® and PrestoBlue proliferation assays were performed to determine the growth kinetics of Notch inhibitor treated cells. Alamar Blue® and PrestoBlue consists of a cell permeable substrate resazurin. In metabolically active and proliferating cells, resazurin is converted to resorufin due to an intrinsic reducing power of live cells and produces a red fluorescence. Therefore production of resorufin serves as an indicator of the viability of the cell population.
Proliferation assays were performed by seeding 5000 cells/well in a 96 well plate. […] Each concentration was tested in 4 replicates. To determine the growth kinetics, 10 μl of Alamar Blue® or PrestoBlue (Invitrogen) was added to each well and incubated for 4 hours. Readout was taken using Tecan F500 (Tecan) multiplate reader or Varioskan LUX (ThermoFisher) multiplate reader.
(§2) In order to determine anti-cancer potency of compounds compared to 6-(4-tert-butylphenoxy)pyridin-3-amine (described in WO2013/093885), NOTCH positive/driven human T cell acute lymphoblastic leukemia cell line RPMI 8402 was treated with selected compounds.

cMYC [2] = assay: Jess western blot of RPMI8402 protein lysates: cMYC; format: cell-based, human; settings: RPMI8402, 1 μM, 24 hours, 37° C
Description: (§3) One million human NOTCH positive T-ALL cell line RPMI8402 were treated with NOTCH targeting compounds at 1 μM concentration for 24 hours. Following treatment cells were harvested and washed with 1×PBS. Total RNA and total protein lysates were extracted as described below.
(§4) Cells were lysed in RIPA buffer (50 mM Tris·Cl, pH 7.5, 150 mM NaCl, 1% nonidet P-40, 0.5% sodium deoxycholate and 0.1% SDS) for 30 minutes at 4° C. Lysed cells were centrifuged to remove the debris at 14000 rpm at 4° C. Supernatant was transferred to a new eppendorf tube. The protein concentration was determined by Bradford assay using spectrophotometer (Ultrospec 3000 pro).
(§5) Later on western blotting was carried out using Jess (ProteinSimple, biotechne). Samples containing 0.8 μg protein was denatured in loading buffer containing DTT by heating at 95° C. for 5 minutes. Samples were run on 12-230 kDa gel matrix, with incubation time for primary and secondary antibodies of 1 hour and 30 minutes, respectively. Data were analysed using Compass for SW (ProteinSimple, biotechne) software.
(§6) Total protein lysates were analysed by Jess western blot analysis using N1-ICD (cleaved and active NOTCH1 Intracellular Domain), cMYC and GAPDH specific antibodies.

[3] = system: N1-ICD (cleaved and active NOTCH1 Intracellular Domain); assay: Jess western blot of RPMI8402 protein lysates: N1-ICD; format: cell-based, human; settings: RPMI8402, 1 μM, 24 hours, 37° C
Description: as §3, §4, §5, §6

[4] = system: NOTCH positive/driven human T cell acute lymphoblastic leukemia cell line RPMI 8402; assay: Alamar blue anti-proliferative assay; format: cell-based; settings: for IC50: Homo sapiens, RPMI 8402, RPMI8402, 72 hours, concentration range 0.01-10 μM
Description: as §1
Proliferation assays were performed by seeding 5000 cells/well in a 96 well plate. Cells were treated with DMSO or compounds for 72 hours using concentration ranges of 0.01-10 μM. Each concentration was tested in 4 replicates. To determine the growth kinetics, 10 μl of Alamar Blue® or PrestoBlue (Invitrogen) was added to each well and incubated for 4 hours. Readout was taken using Tecan F500 (Tecan) multiplate reader or Varioskan LUX (ThermoFisher) multiplate reader.
as §2

cMYC [5] = assay: Western blot of RPMI8402 protein lysates: cMYC; format: cell-based, human; settings: NOTCH positive leukemic cells, 1 μM, 24 hours, FIGS. 2 and 3
Description: as §3, §4
(§7) Initially for western blotting, 40 μg of protein were denatured in 1×SDS gel loading buffer (100 mM Tris·Cl, pH 6.8, 200 mM DTT, 4% SDS, 0.2% bromophenol, 20% glycerol) by heating at 99° C. for 5 minutes. Denatured protein samples were stored on ice until loading on to the acrylamide gel. The samples were run on 8% or 10% acrylamide gel in Tris-glycine electrophoresis buffer (25 mM Tris, 250 mM glycine, 0.1% SDS). Following separation on the acrylamide gel, protein samples were transferred on to PVDF membrane (PEQ lab, catalog number 39-3010) using transfer buffer (39 mM glycine, 48 mM Tris base, 0.037% SDS and 20% methanol).
(§8) For immunoblotting, membranes were blocked with 5% milk and incubated overnight with primary antibodies at 4° C. Membrane were washed with 1×TBST (1×TBS+0.5 tween 20) for 5 minutes (3 times) and incubated with HRP-conjugated secondary antibodies for one hour at room temperature. Signal was detected with Super Signal West chemiluminescent substrate (Thermo Scientific, catalog number 34077).
(§9) Total protein lysates were analysed by western blot analysis using N1-ICD (cleaved and active NOTCH1 Intracellular Domain), cMYC and ACTIN specific antibodies.

[6] = system: N1-ICD (cleaved and active NOTCH1 Intracellular Domain); assay: Western blot of RPMI8402 protein lysates: N1-ICD; format: cell-based, human; settings: NOTCH positive leukemic cells, 1 μM, 24 hours, FIGS. 2 and 3
Description: as §3, §4, §7, §8, §9

NOTCH pathway = assay: Western blot, downregulation of NOTCH pathway (N1-ICD and cMYC), FIG. 2 and 3; format: cell-based, human; settings: RPMI8402, 1 μM, 24 hours
Description: NOTCH positive human leukemic RPMI8402 cells were treated with 1 μM of 6-(4-tert-butylphenoxy)pyridin-3-amine and 6-([1,1′-Biphenyl]-4-yloxy)-N-methylpyridin-3-amine for 24 hours. Following treatment, total protein lysates were extracted and protein expression analysed by western blot.
NOTCH positive human leukemic RPMI8402 cells were treated with 1 μM of 6-(4-tert-butylphenoxy)pyridin-3-amine and 6-((4′-Fluoro-[1,1′-biphenyl]-4-yl)oxy)pyridin-3-amine, 6-([1,1′-Biphenyl]-4-yloxy)-4-methylpyridin-3-amine, 6-([1,1′-Biphenyl]-4-yloxy)-2-methylpyridin-3-amine and N-Methyl-6-((6-phenylpyridin-3-yl)oxy)pyridin-3-amine for 24 hours. Following treatment, total protein lysates were extracted and protein expression analysed by western blot.
as §3, §4, §7, §8

SMILES	IC50 [1]	fold change compared to 6-(4-tert-butylphenoxy)pyridin-3-amine (anti-proliferative IC50) [1]	IC50 [4]	Percentage improvement of compounds over 6-(4-tert-Butylphenoxy)pyridin-3-amine to downregulate NOTCH target genes (protein expression): cMYC (cMYC [2])	Percentage improvement of compounds over 6-(4-tert-Butylphenoxy)pyridin-3-amine to downregulate NOTCH target genes (protein expression): N1-ICD [3]	also measured
Cc1nc(Oc2ccc(-c3nccs3)cc2)ccc1N [Example 35, 2-Methyl-6-(4-(thiazol-2-yl)phenoxy)pyridin-3-amine]	< 30 nM	(>24x)	–	130%	132%	–
CNc1ccc(Oc2ccc(-c3cncs3)cc2)nc1 [Example 34, N-Methyl-6-(4-(thiazol-5-yl)phenoxy)pyridin-3-amine]	150 nM	(4.9x)	–	115%	114%	–
Cc1nc(Oc2ccc(-c3cncs3)cc2)ccc1N [Example 32, 2-Methyl-6-(4-(thiazol-5-yl)phenoxy)pyridin-3-amine]	500 nM	(1.5x)	–	133%	136%	–
Nc1ccc(Cc2ccc(-c3ccc(F)cc3)cc2)cc1 [Example 59, 4-((4′-Fluoro-[1,1′-biphenyl]-4-yl)methyl)aniline]	–	–	–	154%	149%	–
Cc1cc(Oc2ccc(-c3ccc(F)cc3)cc2)ncc1N [Example 29, 6-((4′-Fluoro-[1,1′-biphenyl]-4-yl)oxy)-4-methylpyridin-3-amine]	–	–	–	183%	192%	–
Cc1cc(Oc2ccc(-c3cncs3)cc2)ncc1N [Example 33, 4-Methyl-6-(4-(thiazol-5-yl)phenoxy)pyridin-3-amine]	< 30 nM	(>24x)	–	130%	132%	–
Cc1ccccc1-c1ccc(Oc2ccc(N)c(C)n2)cc1C [Example 37, 6-((2,2′-Dimethyl-[1,1′-biphenyl]-4-yl)oxy)-2-methylpyridin-3-amine]	–	–	–	138%	151%	–
Cc1cc(Oc2ccc(-c3nccs3)cc2)ncc1N [Example 36, 4-Methyl-6-(4-(thiazol-2-yl)phenoxy)pyridin-3-amine]	50 nM	(14.8x)	–	–	–	–
CNc1ccc(Oc2ccc(-c3ccccc3)cc2)c(F)c1 [Example 6, 4-([1,1′-Biphenyl]-4-yloxy)-3-fluoro-N-methylaniline]	–	–	700 nM	–	–	–
CC(C)(C)c1ccc(Oc2ccc(N)cn2)cc1 [6-(4-tert-butylphenoxy)pyridin-3-amine, reference compound]	740 nM	(1X) x	740 nM	100%	100%	fold change compared to 6-(4-tert-butylphenoxy)pyridin-3-amine (anti-proliferative IC50) ([4]; RPMI8402, 72 hours): (1X) x
Cc1cc(Oc2ccc(-c3ccccc3)nc2)ncc1N [Example 31, 4-Methyl-6-((6-phenylpyridin-3-yl)oxy)pyridin-3-amine]	–	–	–	108%	110%	–

The next lines start with results.

IC50 [1]	fold change compared to 6-(4-tert-butylphenoxy)pyridin-3-amine (anti-proliferative IC50) [1]	IC50 [4]	SMILES	Percentage improvement of compounds over 6-(4-tert-Butylphenoxy)pyridin-3-amine to downregulate NOTCH target genes (protein expression): cMYC (cMYC [2])	Percentage improvement of compounds over 6-(4-tert-Butylphenoxy)pyridin-3-amine to downregulate NOTCH target genes (protein expression): N1-ICD [3]	also measured
< 30 nM	(>24x)	–	Cc1nc(Oc2ccc(-c3ccc(F)cc3)cc2)ccc1N [Example 28, 6-((4′-Fluoro-[1,1′-biphenyl]-4-yl)oxy)-2-methylpyridin-3-amine]	170%	173%	–
–	–	170 nM	Nc1ccc(Oc2ccc(-c3ccccc3)cc2)cc1 [Example 7, 4-([1,1′-Biphenyl]-4-yloxy)aniline]	–	–	–
–	–	110 nM	CNc1ccc(Oc2ccc(-c3ccccc3)cc2)nc1 [Example 2, 6-([1,1′-Biphenyl]-4-yloxy)-N-methylpyridin-3-amine]	–	–	downregulation of cMYC compared to 6-(4-tert-butylphenoxy)pyridin-3-amine (cMYC [5]): stronger downregulation; downregulation of N1-ICD compared to 6-(4-tert-butylphenoxy)pyridin-3-amine [6]: stronger downregulation; potency in downregulating NOTCH pathway compared with 6-(4-tert-butylphenoxy)pyridin-3-amine (NOTCH pathway): enhanced potency
–	–	110 nM	Cc1cc(Oc2ccc(-c3ccccc3)cc2)ncc1N [Example 9, 6-([1,1′-Biphenyl]-4-yloxy)-4-methylpyridin-3-amine]	–	–	downregulation of cMYC compared to 6-(4-tert-butylphenoxy)pyridin-3-amine (cMYC [5]): stronger downregulation; downregulation of N1-ICD compared to 6-(4-tert-butylphenoxy)pyridin-3-amine [6]: stronger downregulation; potency in downregulating NOTCH pathway compared with 6-(4-tert-butylphenoxy)pyridin-3-amine (NOTCH pathway): enhanced potency
450 nM	(1.6x)	–	Cc1nc(Oc2ccc(-c3ccccc3)nc2)ccc1N [Example 30, 2-Methyl-6-((6-phenylpyridin-3-yl)oxy)pyridin-3-amine]	159%	159%	–
–	–	920 nM	Nc1ccc(OCCc2cc(Oc3ccc(N)cn3)ccc2-c2ccccc2)cc1 [Example 22, 6-((2-(2-(4-Aminophenoxy)ethyl)-[1,1′-biphenyl]-4-yl)oxy)pyridin-3-amine]	–	–	–
200 nM	(3.7x)	–	CNc1ccc(Oc2ccc(-c3ccc(F)cc3)cc2)nc1 [Example 27, 6-((4′-Fluoro-[1,1′-biphenyl]-4-yl)oxy)-N-methylpyridin-3-amine]	183%	197%	–
